Assay results: patent US20220096592A1, “PIC1 VARIANTS WITH IMPROVED SOLUBILITY AND METHODS OF USING THE SAME” (priority 2019, published 2022)
Entries after “also recorded” stand apart in the source; their conditions may differ.

Legend:
C5a generation = experiment: C5a ELISA of supernatant, antibody-sensitized human platelets in normal human serum; assay type: cell-based
Procedure: For experiments sensitizing platelets with human anti-platelet antibody, purified platelets were treated with 4% ITP sera for 15 minutes at 30° C. before adding 2% normal human complement sufficient sera and incubating for 30 minutes at 37° C. For samples containing PIC1, sera and PIC1 were pre-incubated for 5 minutes before combining with sensitized platelets. Samples were then spun and supernatant was removed for C5a analysis by ELISA. A C5a ELISA kit (R&D Systems) was used per manufacturer's instructions. The cells were washed once with GVBS^−− and once with water to lyse the platelets. The remaining cell pellet was treated with 25 mM methylamine for 1 hour at 37° C., spun, and the supernatant was analyzed for iC3b by ELISA. The ELISA for iC3b was performed as previously described, utilizing a goat anti-human C3 antibody (Complement Technology, Tyler, Tex.) for capture, a mouse anti-human iC3b antibody (Quidel, San Diego, Calif.) for probing, and a goat anti-mouse HRP (Sigma-Aldrich, St Louis, Mo.) for detection.
Plasma recovered from these experiments was then assayed for the pro-inflammatory anaphylatoxin C5a by ELISA.

[1] = tested on: complement-mediated hemolysis of the patient's erythrocytes; experiment: hemolytic complement assay with plasma and erythrocytes of a DHTR patient; assay type: cell-based, human; conditions: complement permissive buffer GVBS++, increasing concentrations, FIG. 13; listed as PIC1
Procedure: Discarded de-identified blood was obtained from routine medical management blood draws from the patient prior to treatment with eculizumab. […] Complement permissive GVBS^++ buffer is veronal-buffered saline with 0.1% gelatin, 0.15 mM CaCl2, and 1 mM MgCl2 [11]. Complement inhibitory buffer GVBS^−− is a veronal-buffered saline with 0.1% gelatin and 10 mM EDTA. Approximately 5×10^7 washed erythrocytes were incubated with 20% plasma in a reaction volume of 0.15 ml for 1 hour at 37° C.
Erythrocytes were sedimented by centrifugation at 1,500×g for 5 minutes and the supernatant was then recovered. The supernatant was measured on a Bio Tek Synergy HT plate reader spectrophotometer for absorption at 412 nm. Hemolysis was measured by quantitation of free hemoglobin on the spectrophotometer at 412 nm.

[2] = tested on: transfused human platelets; experiment: human platelets transfused into Wistar rats (platelet refractoriness model); assay type: in vivo, Wistar rat
Procedure: Male Wistar rats approximately 16 weeks old and 250 grams in weight were purchased (Hilltop Scottdale, Pa.) with indwelling intra jugular catheters in place. Rats were sedated with ketamine and acepromazine throughout the course of the experiment with monitoring of vital signs. PIC1 infusions were performed 30 seconds prior to transfusion with PKH26 stained human platelets. Blood samples were collected into K2EDTA microtainer tubes (BD, Franklin Lakes, N.J., USA) from the animals prior to transfusion and then at 0.5, 2, 5, 20, 60 and 120 min after transfusion. Upon completion of the final blood draw, the animals were euthanized using Fatal Plus (Vortech Pharmaceuticals, Dearborn, Mich., USA). A necropsy was completed after euthanasia to collect organs for histopathology.
Flow cytometry was performed using a FACSCalibur flow cytometer (Becton Dickinson, Franklin Lakes, N.J., USA) with DXP 8 Color 488/637/407 upgrade (Cytek Development, Freemont, Calif., USA). The data was acquired using Cytek FlowJo CE version 7.5.110.7. Prior to analysis on the flow cytometry machine, whole rat blood was spun at 500×g for 5 min. The plasma platelet layer was removed and then diluted 1:10 with PBS. Approximately 20,000 events selected for platelet size were run on the […]. Data was analyzed using FlowJo V10.4.2 (FlowJo LLC, Ashland, Oreg., USA).
The unstained native rat platelets are to the left of the vertical line, and the stained transfused platelets are to the right. […] This difference is not noticeable at two minutes.
Total platelet counts for rats transfused with unstained platelets treated with PIC1 or saline control (as shown in FIG. 12B) were evaluated in order to evaluate if similar trends could be determined for unstained platelets. Platelet counts were measured for each blood sample by Antech Diagnostics (Chesapeake, Va.). Decreases in platelet counts were calculated for each time point compared with the maximal platelet count immediately after transfusion at 30 seconds.

complement activation = conditions: administered intravascularly into rats, by 30 seconds; cited from earlier work
[3] = tested on: purified human neutrophils; experiment: NETosis assay (immune complex activated serum and H2O2; PicoGreen free DNA, fluorescence microscopy); assay type: cell-based; conditions: neutrophils stimulated with immune complexes, FIG. 5B third row
Procedure: NETosis assays with immune complexes were performed as previously described. Briefly, normal human serum was stimulated with ovalbumin-antiovalbumin immune complexes in GVBS^++ for 30 minutes at 37° C. This mixture along with 0.05% H2O2 was then added to purified human neutrophils resuspended in RPMI with or without sarcosine variants (2 mM), allowing NETosis to occur. Quantitation of free DNA released from the neutrophils was performed using PicoGreen. Slides were stained with DAPI (Southern Biotech, Birmingham, Ala.). The following antibodies were used to visualize formation of NETs: • (i) mouse anti-elastase (Invitrogen, Carlsbad, Calif.) as a primary antibody with the secondary goat anti-mouse antibody Alexa Fluor 568 (Novus Biologicals, Centennial, Colo.) and • (ii) rabbit anti-histone H3 (Abcam, Cambridge Mass.) with goat anti-rabbit antibody Alexa Fluor 488 (Novus Biologicals). Fluorescence microscopy using an Olympus BX53 microscope was performed to visualize NETs.
The peptide variants were tested for inhibition of NETosis. In this assay, purified human neutrophils were stimulated with normal human serum activated with ovalbumin-antiovalbumin immune complexes and hydrogen peroxide. Free DNA expressed from the neutrophils was then measured in a PicoGreen assay. […] Direct visualization of neutrophil extracellular trap (NET) formation by fluorescence microscopy was used to confirm the above NETosis results with the 18 variant. Human neutrophils were purified and stimulated on glass slides then stained with DAPI to visualize DNA and probed with anti-neutrophil elastase (αNE) and anti-histone H3 (αhistone), as previously described. […] Fluorescence microscopy visualization of NETs confirmed the findings seen for quantitative measurements of free DNA.

[4] = tested on: Wistar rat sera complement-mediated killing of human platelets; experiment: viability of human platelets in Wistar rat sera (Presto Blue); assay type: cell-based; conditions: increasing concentrations, vs platelets in normal rat sera, P<0.017, FIG. 7C
Procedure: For experiments using rat sera, purified platelets were incubated with 5% Wistar rat sera at different time points (5 min, 20 min and 60 min) in a 37° C. bath. Thereafter, GVBS^−− was added to the mixture and this was spun at 500 g for 5 min at 22° C. After resuspending with 250 ul of PBS, PrestoBlue was added to the cells at a 1:10 dilution and incubated in a 37° C. water bath for 30 min. The cells were then plated and read on a microplate reader at 530 nm. With the addition of PIC1 to sera, there was a preincubation time of 5 minutes before addition of platelets.
In order to evaluate the extent to which rat sera killing of human platelets is mediated by the classical pathway of complement, we utilized PA-dPEG24.

## H2N-IALILEPICCQERAA-dPEG24 (H-IALILEPICCQERAA-dPEG24; cysteine pairing not given here) [PA-dPEG24, 15-amino acid PEGylated peptide, 24 PEG moieties at the C-terminus]
C5a generation; 1.5 mM, P=0.028
  inhibition of C5a generation, in words: Significant inhibition of C5a generation
C5a generation; 3.0 mM, P=0.006
  decrease of C5a generation: 44%
C5a generation; sensitizing antibody and NHS, increasing concentrations, FIG. 6B
  C5a generation, dose response: dose-dependently inhibited C5a generation
[1]
  hemolysis of patient erythrocytes by patient plasma: statistically significant dose-dependent decrease of hemolysis; also recorded: inhibited hemolysis to the background signal; also recorded: completely blocked at higher doses
[2]; 160 mg/kg infused 30 seconds before transfusion, 0.5 minutes after transfusion, P=0.05, FIG. 12A
  increase in transfused platelets compared with control: 2 fold
[2]; 160 mg/kg, 0.5 minutes after transfusion, vs vehicle, FIG. 11
  stained transfused platelets, representative flow cytometry: increased numbers of stained transfused platelets
[2]; 160 mg/kg, later time points than 0.5 minutes
  amount of transfused platelets compared with control: no significant difference in the amount of transfused platelets
[2]; unstained platelets, two minutes (P=0.04) and 20 minutes (P=0.03), FIG. 12B
  decrease in total platelet count relative to 30 seconds after transfusion: Statistically significant greater decreases in the platelet count were found for saline-treated versus PA-dPEG24-treated animals
Complement activation
  systemic inhibition of complement activation: > 90%
[3]
  NET formation by fluorescence microscopy: dramatic reduction in NETs
[4]
  viability of human platelets in rat sera: dose-dependent improvement in platelet viability; also recorded: improved survival for human platelets in rat sera for all doses tested compared to control
